Results reported in patent publication US7442699B2, “Anilinopyrimidine derivatives as IKK inhibitors and compositions and methods related thereto” (Signal Pharmaceuticals, LLC, priority 2000, dated 2008).
Structures can show the parent of a compound that is named as a salt. Where two headings read alike, the source gives them in different places.

Target: T1, IKK-2 (Homo sapiens, UniProt O14920, S177E/S181E)
T1 construct: His6
T1 sequence (O14920 1-756 S177E/S181E): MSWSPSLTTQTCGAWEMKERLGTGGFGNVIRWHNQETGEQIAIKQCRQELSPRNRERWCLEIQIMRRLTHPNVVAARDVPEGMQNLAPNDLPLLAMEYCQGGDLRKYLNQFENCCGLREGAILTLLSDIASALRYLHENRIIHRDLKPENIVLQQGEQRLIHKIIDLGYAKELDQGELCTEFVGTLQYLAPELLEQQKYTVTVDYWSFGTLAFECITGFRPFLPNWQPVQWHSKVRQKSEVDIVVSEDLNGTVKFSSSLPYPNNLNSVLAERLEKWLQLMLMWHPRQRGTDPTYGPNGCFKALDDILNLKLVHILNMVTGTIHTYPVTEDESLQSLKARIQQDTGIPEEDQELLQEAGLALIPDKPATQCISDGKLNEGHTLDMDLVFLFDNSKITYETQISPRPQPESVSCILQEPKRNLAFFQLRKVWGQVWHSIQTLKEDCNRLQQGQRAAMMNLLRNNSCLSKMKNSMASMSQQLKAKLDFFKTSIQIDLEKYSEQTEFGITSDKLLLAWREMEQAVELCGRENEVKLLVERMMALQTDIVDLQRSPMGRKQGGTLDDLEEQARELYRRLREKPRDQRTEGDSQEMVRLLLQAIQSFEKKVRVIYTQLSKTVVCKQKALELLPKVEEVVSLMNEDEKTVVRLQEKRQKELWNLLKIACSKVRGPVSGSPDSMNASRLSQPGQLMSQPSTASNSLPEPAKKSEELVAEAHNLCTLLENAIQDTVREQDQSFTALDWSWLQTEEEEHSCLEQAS
Assay: IKK-2 Enzyme Assay
Assay type: biochemical
Conditions: read-out: IC50 value in the IKK-2 Enzyme Assay
Protocol: The mixture is preincubated for 15 minutes at room temperature. […] After 30 minutes the precipitate is harvested onto a filter plate to which 50 μl of scintillation fluid is added and then quantified by a scintillation counter.

[1] = more preferred compounds, 500 nM or less
[2] = preferred compounds, 1 μM or less

Row | SMILES | IC50 [1] [nM] | IC50 [2] [nM]
1 | C[C@@H]1CN(C(=O)c2ccc(Nc3nccc(-c4ccc(Cl)cc4)n3)cc2)C[C@H](C)N1 [Compound 17-190] | ≤ 500 | ≤ 1000
2 | O=C(c1ccc(Nc2nccc(-c3ccc(Cl)cc3)n2)cc1)N1CCN(CCO)CC1 [Compound 17-215] | ≤ 500 | ≤ 1000
3 | O=C(c1ccc(Nc2nccc(-c3ccc(Cl)cc3)n2)cc1)N1CCNCC1 [Compound 18, 4-{[4-(4-chlorophenyl)pyrimidin-2-yl]amino}benzoic acid piperazine amide hydrochloride] | ≤ 500 | ≤ 1000
4 | CC(=O)NC1CCN(C(=O)c2ccc(Nc3nccc(-c4ccc(Cl)cc4)n3)cc2)CC1 [Compound 20-1, N-{1-[(4-{[4-(4-Chlorophenyl)pyrimidin-2-yl]amino}phenyl)carbonyl]-4-piperidyl}acetamide] | ≤ 500 | ≤ 1000
5 | Cc1noc(C)c1C(=O)NC1CCN(C(=O)c2ccc(Nc3nccc(-c4ccc(Cl)cc4)n3)cc2)CC1 [Compound 20-2] | ≤ 500 | ≤ 1000
6 | O=C(NC1CCN(C(=O)c2ccc(Nc3nccc(-c4ccc(Cl)cc4)n3)cc2)CC1)c1cccs1 [Compound 20-3] | ≤ 500 | ≤ 1000
7 | O=C(NC1CCN(C(=O)c2ccc(Nc3nccc(-c4ccc(Cl)cc4)n3)cc2)CC1)N1CCOCC1 [Compound 20-4] | ≤ 500 | ≤ 1000
8 | CN(C)C(=O)NC1CCN(C(=O)c2ccc(Nc3nccc(-c4ccc(Cl)cc4)n3)cc2)CC1 [Compound 20-5] | ≤ 500 | ≤ 1000
9 | COCC(=O)NC1CCN(C(=O)c2ccc(Nc3nccc(-c4ccc(Cl)cc4)n3)cc2)CC1 [Compound 20-6] | ≤ 500 | ≤ 1000
